Laboratory results published in EP0819689A1, “5-substituted (2H) chromenes” (Byk Gulden Lomberg Chemische Fabrik GmbH, priority 1996, dated 1998).

test system: PDE IV; experiment: Inhibition of PDE IV activity (method of Bauer and Schwabe, adapted to microtitre plates); format: biochemical; conditions: Hemmung der PDE IV-Aktivität
Text: Der Aktivitätstest wurde nach der Methode von Bauer und Schwabe durchgeführt, die auf Mikrotiterplatten adaptiert wurde (Naunyn-Schmiedeberg's Arch. Pharmacol. 1980, 311, 193-198). Hierbei erfolgt im ersten Schritt die PDE-Reaktion. In einem zweiten Schritt wird das entstandene 5'-Nukleotid durch eine 5'-Nukleotidase des Schlangengiftes von ophiophagus hannah (King Cobra) zum ungeladenen Nukleosid gespalten. Im dritten Schritt wird das Nukleosid auf Ionenaustauschsäulen vom verbliebenen geladenen Substrat getrennt. Die Säulen werden mit 2 ml 30 mM Ammoniumformiat (pH 6,0) direkt in Minivials eluiert, in die noch 2 ml Szintillatorflüssigkeit zur Zählung gegeben wird.
Die für die erfindungsgemäßen Verbindungen ermittelten Hemmwerte ergeben sich aus der folgenden Tabelle A, in der die Nummern der Verbindungen den Nummern der Beispiele entsprechen. Tabelle A

Row | Structure (SMILES) | PDE 4 -logIC50
1 | COc1ccc(CC(C#N)c2ccncc2)c2c1OC(C)(C)CC2 (racemic) [Verbindung 9, (±)-5-[2-Cyano-2-(pyrid-4-yl)ethyl]-8-methoxy-2,2-dimethylchroman] | 7,01
2 | COc1ccc(/C=C(\C#N)c2ccncc2)c2c1OC1(C=C2)CCCC1 [Verbindung 4, (Z)-Spiro{5-[2-Cyano-2-(pyrid-4-yl)ethenyl]-8-methoxy-[2H]chromen-2.1'-Cyclopentan}] | 6,12
3 | COc1ccc(CCc2ccncc2)c2c1OC1(CCCC1)CC2 [Verbindung 3, Spiro{5-[2-(pyrid-4-yl)ethyl]-8-methoxychroman-2.1'-Cyclopentan}] | 7,59
4 | COc1ccc(CC(C#N)c2ccncc2)c2c1OC1(CCCC1)CC2 (racemic) [Verbindung 8, (±)-Spiro{5-[2-Cyano-2-(pyrid-4-yl)ethyl]-8-methoxychroman}] | 6,95
5 | COc1ccc(/C=C(\C#N)c2cccnc2)c2c1OC(C)(C)C=C2 [Verbindung 6, (Z)-5-[2-Cyano-2-(pyrid-3-yl)ethenyl]-8-methoxy-2,2-dimethyl-[2H]chromen] | 6,36
6 | COc1ccc(/C=C(\C#N)c2ccncc2)c2c1OC(C)(C)C=C2 [Verbindung 5, (Z)-5-[2-Cyano-2-(pyrid-4-yl)ethenyl]-8-methoxy-2,2-dimethyl-[2H]chromen] | 6,73
7 | COc1ccc(C(O)Cc2ccncc2)c2c1OC1(C=C2)CCCC1 (racemic) [Verbindung 1, (±)-Spiro{5-[1-Hydroxy-2-(pyrid-4-yl)ethyl]-8-methoxy-[2H]chromen-2,1'-Cyclopentan}] | 5,88
8 | COc1ccc(/C=C(\C#N)c2ccccn2)c2c1OC(C)(C)C=C2 [Verbindung 7, (Z)-5-[2-Cyano-2-(pyrid-2-yl)ethenyl]-8-methoxy-2,2-dimethyl-[2H]chromen] | 5,95
9 | COc1ccc(/C=C/c2ccncc2)c2c1OC1(C=C2)CCCC1 [Verbindung 2, (E)-Spiro{5-[2-(pyrid-4-yl)ethenyl]-8-methoxy-[2H]chromen-2,1'-Cyclopentan}] | 7,10
10 | COc1ccc(CC(C#N)c2ccccn2)c2c1OC(C)(C)CC2 (racemic) [Verbindung 10, (±)-5-[2-Cyano-2-(pyrid-2-yl)ethyl]-8-methoxy-2,2-dimethylchroman] | 6,76
